Data on four compounds can be found in US4709027A, “Bicyclic spirosulfonimides with psychotropic activity” (American Home Products Corporation, priority 1986, dated 1987).

The nature of test [1]: conditioned avoidance (discrete trial) test. The test is classed as in vivo, male CD rats. The settings on record: Rattus norvegicus, po, rats, read-out: AB50 (dose producing 50% block in avoidance responding), discrete trial. The protocol:
The antipsychotic activity of the compounds of the invention is assessed via the conditioned avoidance (discrete trial) test. This test has excellent clinical correlation for antipsychotic activity.
Male CD rats (Charles River) maintained at approximately 400-450 gm body weight are used. Rats trained previously are placed in plexiglass experimental chambers equipped with a response lever, house light, and sonalert. A steel grid floor is wired for presentation of electric shock. Each trial consists of a fifteen-second warning tone (conditioned stimulus), continuing for an additional fifteen seconds accompanied by electric shock, (unconditioned stimulus). The rat can terminate a trial at any point by depression of the response lever. […]
The following experimental parameters are recorded by computer; (1) the number of interval responses, (2) the number of avoidance responses, (3) the number of escape responses, and (4) the number of trials in which no response occurred.
Response counts are summed over all subjects at a given dose. […] This number is expressed as a percentage of the total trials. Control performance is arbitrarily assigned a value of 100% for avoidance and the dose calculated to produce a 50% block in avoidance responding (AB50) is obtained from a dose-effect regression line fitted by the method of least squares. […]

A short description of test [2]: conditioned avoidance (shelf-jump response) test. The format is in vivo, male CD rats. The settings on record: i.p., rats. From the text:
A test designed to determine the potential antipsychotic activity of the compounds of the invention is the conditioned avoidance (shelf-jump response) test.
Male CD rats (Charles River) maintained at approximately 400-450 gm body weight are used. […] A moveable wall, controlled by a motor, determines whether the rat has access to the shelf at any time during the experiment. The experimental chamber also contains a house light and sonalert. A steel grid floor in the main chamber is wired for presentation of electric shock. Each trial consists of a fifteen-second warning tone (conditioned stimulus), continuing for an additional fifteen seconds accompanied by electric shock, (unconditioned stimulus). A response (jumping onto the exposed shelf of the upper chamber) occurring during the initial fifteen-second warning tone is considered an avoidance response, while a response occurring during shock delivery is considered an escape response. Trials are presented on a fixed interval schedule of one minute. The session consists of thirty-six trials. Animals are run twice weekly with control sessions always preceding a drug run, and with at least one day intervening. Compounds are administered i.p. or p.o. at appropriate pre-treatment times to a minimum of five rats at each dose level over a range of doses.
The following experimental parameters are recorded by computer: (1) the number of avoidance responses, (2) the number of escape responses, and (3) the number of trials in which no response occurred.
Response counts are summed over all subjects at a given dose. […] This number is expressed as a percentage of the total trials. Control performance is arbitrarily assigned a value of 100% for avoidance and the dose calculated to produce a 50% block in avoidance responding (AB50) is obtained from a dose-effect regression line fitted by the method of least squares. Potential anti-psychotic compounds suppress avoidance responding and increase escape responding.

The subject of test [3] is 5-HT-1A serotonin receptor. Briefly: ex vivo inhibition of 5-HT-1A serotonin receptor binding (3H-8-OH-DPAT, hippocampal membranes). More on the design: species or system rats. As to conditions: at 1 μM of drug concentration. The procedure: Several groups of rats (4-6 rats/group) are injected with test compound or the appropriate vehicle. Thirty minutes later, unless otherwise noted, rats are decapitated and their brains removed. Various brain regions are dissected and rapidly frozen and maintained at -70° C. until used.
Hippocampal tissue is dissected and homogenized on ice in 40 vols of buffer (50 mM Tris HCl, pH=7.7) using a Polytron homogenizer at setting 5 for 3×15 sec bursts. The homogenate is then centrifuged at 20,000 rpm (RC5-B; 50,000 g) and the supernatant discarded. The pellet is resuspended in 40 vols of the same buffer and incubated at 37° C. for 10 minutes to aid in the removal of endogenous serotonin. the homogenate is then centrifuged (as above) and the supernatant discarded. […]
The homogenate (50 μl; 0.4-0.6 mg protein/sample) is incubated with 100 μl (1.5-1.8 nM) ^3 H-8-hydroxy-2-(di-n-propylamino)tetraline in a final volume of 2 ml of buffer for 10 minutes at 37° C. […] The vials are then counted in a Packard 460 CD scintillation counter.
Specific binding is calculated for each of the treatment protocols and is defined as total binding less binding in the presence of excess unlabeled serotonin (1 μM). Specific binding obtained in vehicle-treated rats is compared to that obtained in animals receiving a single or various doses of test compound and expressed as percent of control.

Like-named read-outs stand apart in the source and are kept apart here.

In the case of `O=C1CC2(CCCC2)CC(=O)N1CCCCN1CCN(c2ncccn2)CC1` [Buspirone, 8-[4-[4-(2-pyrimidinyl)-1-piperazinyl]butyl]-8-azaspiro[4.5]decane-7,9-dione, reference compound], the ED50 in test [1] (peroral administration, range in parentheses) was determined as 47.9 mg/kg.

For the compound `CC1CC(=O)N(CCCCN2CCN(c3cncc(Cl)n3)CC2)S(=O)(=O)N1` (stereo not drawn) [Example 1, 2-[4-[4-(6-Chloro-2-pyrazinyl)-1-piperazinyl]butyl]-5,6-dihydro-5-methyl-2H-1,2,6-thiadiazin-3(4H)-one 1,1 dioxide], the ED50 in test [1] (perorally, unit inferred) amounted to 32.5 mg/kg. For the same compound, the “Active at (dose), shelf-jump” value in test [2] was found to be 40 mg/kg. The “displacement of specific 3H-8-OH-DPAT binding from hippocampal membranes” value in test [3] was determined as 61%.

Take `O=C1N(CCCCN2CCN(c3ncccn3)CC2)S(=O)(=O)NC12CCCCC2` [Example 2, 3-[4-[4-(2-Pyrimidinyl)-1-piperazinyl]butyl]2-thia-1,3-diazaspiro[4,5]decan-4-one 2,2-dioxide]: the “Active at (dose), shelf-jump” value in test [2] is listed as 40 mg/kg.

Take `CC1CC(=O)N(CCCCN2CCN(c3ncccn3)CC2)S(=O)(=O)N1` (stereo not drawn) [Example 3, 5,6-Dihydro-5-methyl-2-[4-[4-(2-pyrimidinyl)-1-piperazinyl]butyl]-2H-1,2,6-thiadiazin-3(4H)-one 1,1-dioxide]: in test [2], the “Active at (dose), shelf-jump” value stood at 40 mg/kg.
